Measured values published in ChEMBL document CHEMBL1201862, “PubChem BioAssay data set” (2004).
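These data come from cells grown in 96-well plates and exposed to compound for 48 hours at five concentrations. GI50 = concentration required for 50% inhibition of growth.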 Activity calls are given as the source filed them. Cut-off read from the data, not from the text of the source: active = GI50 up to about 1.1 µM and inactive = higher.

How the values were obtained:
Test in all cases: growth of human tumour cells (NCI), 48 h
786-0 = test system: 786-0
A498 = test system: A498
A549 = test system: A549
ACHN = test system: ACHN
BT-549 = test system: BT-549
CAKI-1 = test system: CAKI-1
CCRF-CEM = test system: CCRF-CEM
COLO 205 = test system: COLO 205
DU-145 = test system: DU-145
EKVX = test system: EKVX
HCT-116 = test system: HCT-116
HCT-15 = test system: HCT-15
HOP-62 = test system: HOP-62
HOP-92 = test system: HOP-92
HT-29 = test system: HT-29
Hs-578T = test system: Hs-578T
IGROV-1 = test system: IGROV-1
K562 = test system: K562
KM12 = test system: KM12
LOX IMVI = test system: LOX IMVI
M14 = test system: M14
MCF7 = test system: MCF7
MDA-MB-231 = test system: MDA-MB-231
MDA-MB-435 = test system: MDA-MB-435
MDA-N = test system: MDA-N
MOLT-4 = test system: MOLT-4
Malme-3M = test system: Malme-3M
NCI-H226 = test system: NCI-H226
NCI-H23 = test system: NCI-H23
NCI-H460 = test system: NCI-H460
NCI-H522 = test system: NCI-H522
NCI/ADR-RES = test system: NCI/ADR-RES
OVCAR-3 = test system: OVCAR-3
OVCAR-4 = test system: OVCAR-4
OVCAR-5 = test system: OVCAR-5
OVCAR-8 = test system: OVCAR-8
PC-3 = test system: PC-3
RPMI-8226 = test system: RPMI-8226
RXF 393 = test system: RXF 393
SF-268 = test system: SF-268
SF-295 = test system: SF-295
SF-539 = test system: SF-539
SK-MEL-28 = test system: SK-MEL-28
SK-MEL-2 = test system: SK-MEL-2
SK-MEL-5 = test system: SK-MEL-5
SK-OV-3 = test system: SK-OV-3
SN12C = test system: SN12C
SNB-19 = test system: SNB-19
SNB-75 = test system: SNB-75
SR = test system: SR
SW-620 = test system: SW-620
T47D = test system: T47D
TK-10 = test system: TK-10
U-251 = test system: U-251
UACC-257 = test system: UACC-257
UACC-62 = test system: UACC-62
UO-31 = test system: UO-31
HCC 2998 = test system: HCC 2998
HL-60 = test system: HL-60

Measured: GI50

Cc1cc(Cl)nc2ccc(Cc3ccc4nc(Cl)cc(C)c4c3)cc12
inactive: 786-0 12.2 µM | A498 21 µM | A549 47.5 µM | ACHN 16 µM | BT-549 42.2 µM | CAKI-1 39.8 µM | CCRF-CEM > 100 µM | COLO 205 > 100 µM | DU-145 > 100 µM | EKVX 44.3 µM | HCT-116 22.8 µM | HOP-62 18.5 µM | HOP-92 43.1 µM | HT-29 68.5 µM | Hs-578T 36.3 µM | IGROV-1 31.7 µM | K562 > 100 µM | KM12 > 100 µM | LOX IMVI 56.5 µM | M14 85.3 µM | MCF7 19.1 µM | MDA-MB-231 17.1 µM | MDA-MB-435 65.2 µM | MDA-N 47.3 µM | MOLT-4 > 100 µM | Malme-3M 21.8 µM | NCI-H226 93.3 µM | NCI-H23 44.6 µM | NCI-H460 41.5 µM | NCI-H522 24.2 µM | NCI/ADR-RES 33.5 µM | OVCAR-3 39.3 µM | OVCAR-4 34.8 µM | OVCAR-5 > 100 µM | OVCAR-8 28.6 µM | PC-3 42.7 µM | RPMI-8226 36.6 µM | RXF 393 11 µM | SF-268 43.2 µM | SF-295 22 µM | SF-539 12.6 µM | SK-MEL-28 > 100 µM | SK-MEL-2 47.5 µM | SK-MEL-5 23.8 µM | SK-OV-3 14 µM | SN12C 85.1 µM | SNB-19 32.4 µM | SNB-75 3.3 µM | SR 85.3 µM | SW-620 > 100 µM | T47D 6.25 µM | TK-10 20.7 µM | U-251 16.2 µM | UACC-257 27 µM | UACC-62 51.6 µM | UO-31 37.6 µM
49.3 µM: HCT-15

C=CCn1c(S)nnc1C12CC3CC(CC(C3)C1)C2
inactive: 786-0 > 100 µM | A498 > 100 µM | ACHN 54.3 µM | BT-549 50.6 µM | CCRF-CEM 20.1 µM | COLO 205 > 100 µM | DU-145 69.3 µM | HCC 2998 76.4 µM | HCT-116 46.1 µM | HL-60 17.2 µM | HOP-62 > 100 µM | HT-29 50.1 µM | Hs-578T > 100 µM | IGROV-1 > 100 µM | K562 25.4 µM | KM12 75.5 µM | LOX IMVI 86.5 µM | M14 61 µM | MCF7 42.9 µM | MDA-MB-231 > 100 µM | MDA-MB-435 48.9 µM | MDA-N 45.4 µM | MOLT-4 20.9 µM | Malme-3M > 100 µM | NCI-H226 > 100 µM | NCI-H23 94.4 µM | NCI-H460 53.5 µM | NCI-H522 25 µM | NCI/ADR-RES 55.1 µM | OVCAR-3 59.4 µM | OVCAR-4 58.7 µM | OVCAR-5 > 100 µM | OVCAR-8 92.9 µM | PC-3 32.7 µM | RPMI-8226 36.7 µM | RXF 393 > 100 µM | SF-268 > 100 µM | SF-295 41.3 µM | SF-539 > 100 µM | SK-MEL-28 > 100 µM | SK-MEL-2 67.8 µM | SK-OV-3 > 100 µM | SN12C > 100 µM | SNB-19 > 100 µM | SNB-75 > 100 µM | SR 1.51 µM | SW-620 > 100 µM | T47D 32.8 µM | TK-10 50.7 µM | U-251 86.9 µM | UACC-257 52.2 µM | UACC-62 90.8 µM | UO-31 33 µM
44.3 µM: HCT-15

Nc1c(-c2ccccc2)c2ccc([N+](=O)[O-])cc2c(=O)n1-c1cccc(C(=O)O)c1
> 100 µM: HCT-15
inactive: 786-0 > 10 µM | A498 > 100 µM | A549 > 100 µM | ACHN > 100 µM | BT-549 51.9 µM | CAKI-1 > 100 µM | CCRF-CEM 94.6 µM | DU-145 > 100 µM | EKVX > 100 µM | HCC 2998 > 100 µM | HCT-116 > 100 µM | HL-60 38.3 µM | HOP-62 > 100 µM | HT-29 > 100 µM | Hs-578T 61.2 µM | IGROV-1 > 100 µM | K562 > 100 µM | KM12 > 100 µM | LOX IMVI > 100 µM | M14 > 100 µM | MCF7 > 100 µM | MDA-MB-231 > 100 µM | MDA-MB-435 > 100 µM | MDA-N > 100 µM | MOLT-4 > 100 µM | NCI-H226 > 100 µM | NCI-H23 > 100 µM | NCI-H460 > 100 µM | NCI-H522 > 100 µM | NCI/ADR-RES > 100 µM | OVCAR-3 > 100 µM | OVCAR-4 > 100 µM | OVCAR-5 > 100 µM | OVCAR-8 > 100 µM | PC-3 > 100 µM | RPMI-8226 > 100 µM | RXF 393 > 100 µM | SF-268 > 100 µM | SF-295 > 100 µM | SF-539 > 100 µM | SK-MEL-28 > 100 µM | SK-MEL-2 > 100 µM | SK-MEL-5 > 100 µM | SK-OV-3 > 100 µM | SNB-19 > 100 µM | SNB-75 > 100 µM | SR > 100 µM | SW-620 > 100 µM | T47D > 100 µM | TK-10 > 100 µM | U-251 > 100 µM | UACC-257 > 100 µM | UACC-62 > 100 µM | UO-31 > 100 µM

Cc1c2c(n3c(nc4ccccc43)c1C#N)NCC2
> 10 µM: HCT-15
inactive: 786-0 > 10 µM | A498 > 10 µM | A549 > 10 µM | ACHN > 10 µM | BT-549 > 10 µM | CAKI-1 > 10 µM | CCRF-CEM > 10 µM | COLO 205 > 10 µM | DU-145 > 10 µM | EKVX > 10 µM | HCT-116 > 10 µM | HL-60 > 10 µM | HOP-62 > 10 µM | HOP-92 > 10 µM | HT-29 > 10 µM | Hs-578T > 10 µM | IGROV-1 > 10 µM | K562 > 10 µM | KM12 > 10 µM | LOX IMVI > 10 µM | M14 > 10 µM | MCF7 > 10 µM | MDA-MB-231 > 10 µM | MDA-MB-435 > 10 µM | MDA-N > 10 µM | MOLT-4 > 10 µM | Malme-3M > 10 µM | NCI-H226 > 10 µM | NCI-H23 > 10 µM | NCI-H460 > 10 µM | NCI/ADR-RES > 10 µM | OVCAR-3 > 10 µM | OVCAR-4 > 10 µM | OVCAR-5 > 10 µM | OVCAR-8 > 10 µM | PC-3 > 10 µM | RPMI-8226 > 10 µM | RXF 393 > 10 µM | SF-268 > 10 µM | SF-295 > 10 µM | SF-539 > 10 µM | SK-MEL-28 > 10 µM | SK-MEL-5 > 10 µM | SK-OV-3 > 10 µM | SN12C > 10 µM | SNB-19 > 10 µM | SNB-75 > 10 µM | SR > 10 µM | SW-620 > 10 µM | T47D > 10 µM | TK-10 > 10 µM | U-251 > 10 µM | UACC-257 > 10 µM | UACC-62 > 10 µM | UO-31 > 10 µM

c1ccc2c(Cc3c[nH]c4ccccc34)c[nH]c2c1 [ARUNDINE]
inactive: 786-0 18.5 µM | A498 38.8 µM | A549 20.8 µM | ACHN > 100 µM | BT-549 18.2 µM | CAKI-1 15.9 µM | CCRF-CEM 12.8 µM | COLO 205 13.6 µM | DU-145 18.2 µM | EKVX 14.4 µM | HCT-116 17.1 µM | HL-60 12.5 µM | HOP-62 17.7 µM | HOP-92 16 µM | HT-29 15.2 µM | Hs-578T 41.3 µM | IGROV-1 14.7 µM | K562 19.6 µM | KM12 19.1 µM | LOX IMVI 20.3 µM | M14 16.6 µM | MCF7 > 100 µM | MDA-MB-231 14.3 µM | MDA-MB-435 15.6 µM | MDA-N 19.2 µM | MOLT-4 13.5 µM | Malme-3M 31.3 µM | NCI-H226 2.14 µM | NCI-H23 13.3 µM | NCI-H460 19 µM | NCI-H522 30.5 µM | NCI/ADR-RES 19.1 µM | OVCAR-3 15.7 µM | OVCAR-4 17.8 µM | OVCAR-5 14.2 µM | OVCAR-8 20.5 µM | PC-3 18.2 µM | RPMI-8226 20.2 µM | RXF 393 15.6 µM | SF-268 28.1 µM | SF-295 19.9 µM | SK-MEL-28 36 µM | SK-MEL-2 22.8 µM | SK-MEL-5 13.7 µM | SK-OV-3 23.7 µM | SN12C 16.6 µM | SNB-19 21.7 µM | SNB-75 17.4 µM | SR 12.4 µM | SW-620 20.1 µM | T47D 15.8 µM | TK-10 19.4 µM | U-251 17.7 µM | UACC-257 18.5 µM | UACC-62 > 100 µM | UO-31 14.1 µM
23.4 µM: HCT-15
